In assay [1] the test system is wild type mice. The assay can be described thus: Measurement of amount of food intake (and body weight), wild type mice. In kind it is in vivo. An excerpt:
(§1) Histamine H3 receptor knockout mice (hereinafter referred to as “H3RKO mice”) were produced by the method of Takahashi et al. (J. Clin. Invest, Vol. 110, p. 1791, 2002). The obtained knockout mice were subjected to back crossing with C57BL/6J over 5 generations. Six- to nine-month-old male litters were used in an acute drug administration test. On the other hand, 18- to 20-month-old mice whose parents were H3RKO mice or wild type mice (N5 of C57BL/6J) were used in a chronic drug administration test.
(§2) All mice were individually bred at 25° C., and light and dark were controlled every 12 hours. During breeding, water and feed were freely given to the mice. As such feed, CE2 (CLEA Japan, Inc.) was given to thin mice, and medium high fat diet (Oriental Bio Service Co., Ltd.) was given to DIO mice.
(§3) The concentration of each compound was set at 5 ml/kg.
(§4) The amount of food intake was measured based on the weight of feed at 19:00 and 23:00.

Assay [2] concerns H3RKO mice. In words: Measurement of amount of food intake (and body weight), H3RKO mice. In kind it is in vivo.
Text: as §1, §2, §3, §4

Assay [3] has as its system wild type mice.
Text: as §1, §2, §3
(§5) Mice were divided into groups, depending on mean body weight and the amount of daily food intake before administration of the compound. The body weight and the amount of food intake were measured every day.
(§6) In the test using Thioperamide, mice were divided into 4 groups: a group in which a solvent was administered to C57BL/6J DiO mice at 9:00; a group in which 10 mpk Thioperamide was administered thereto at 9:00; a group in which a solvent was administered to C57BL/6J DiO mice at 17:00; and a group in which 10 mpk Thioperamide was administered thereto at 17:00. […] On the 10th day after the administration, such mice were left in a starvation state for 2 hours. Thereafter, blood was collected from the orbit of each mouse, and the glucose and insulin levels were measured.
(§7) A change in body weight was calculated by dividing a decrease in body weight by the body weight on day 0 at initiation of the test, and the calculated value was expressed as a percentage. The degree of obesity was measured using an NMR analyzer (Minispec; Bruker).

Assay [4] has as its system H3RKO mice. The assay can be described thus: Anti-obesity test with Imetit, H3RKO mice. The format is in vivo.
Text: as §1, §2, §3, §5, §6, §7

The test system of another assay is C57BL/6J mice. The assay can be described thus: Measurement of energy consumption (indirect calorimetry). In kind it is in vivo. The conditions noted are these: Imetit 5 mpk and 20 mpk vs vehicle. Here is the method: Energy consumption was measured using Indirect calorimetry (Columbus Instrument). That is to say, C57BL/6J mice were acclimatized in a test chamber overnight, and VO2 (oxygen consumption) and VCO2 […] were then measured for 1 minute every 10 minutes. Sample air was collected every 10 minutes. RQ (respiratory quotient) was calculated by dividing […]. The test was carried out from 9:00 to 17:00. During the test, mice were allowed to freely ingest feed and water.

In the next assay the test system is C57BL/6J DiO mice. In words: Anti-obesity test with Thioperamide. In kind it is in vivo. The conditions noted are these: 10 mpk Thioperamide at 9:00 or 17:00; FIG. 6. The procedure: as §2, §3, §5, §6, §7
The mark [5] stands for this setting: Wild type, 10th day after administration, 2 hours starvation, blood.
Setting [6] is: Wild type, Imetit twice a day, NMR analyzer.
Setting [7] is: H3RKO, 10th day after administration, 2 hours starvation, blood.
The mark [8] stands for this setting: H3RKO, Imetit twice a day, NMR analyzer.

Regarding `N=C(N)SCCc1c[nH]cn1` [Imetit, carbamimidothioic acid 2-(1H-imidazol-4-yl)ethyl ester], the “change in body weight” value in the assay with wild type mice [1] (FIG. 3) was “decreased depending on the number of doses”; with H3RKO mice [2] (FIG. 4), “such a change in body weight was not observed”. In addition, the “amount of food intake” value in the assay with wild type mice [1] (oral administration, vs solvent control mice, FIG. 1) is reported as “lower than that of control mice”; in the assay with H3RKO mice [2] (oral administration, vs solvent control mice, FIG. 2), “such a decrease in the amount of food intake was not observed”. In addition, the abnormal glucose tolerance entry with wild type mice [3] is “improved”. Besides, the “Glucose” value with wild type mice [3] (setting [5]) is reported as 164.1 ± 6.4 mg/dL; with H3RKO mice [4] (setting [7]), 166.7 ± 10.5 mg/dL. Moreover, the “Insulin” value was 4.7 ± 0.8 ng/mL in the assay on wild type mice [3] (setting [5]) and 4.7 ± 0.9 ng/mL with H3RKO mice [4] (setting [7]). The “Fat (%)” value with wild type mice [3] (setting [6]) is reported as 39.2 ± 2.0 %; in the assay on H3RKO mice [4] (setting [8]), 46.3 ± 2.0%. The entries for the “Lean body mass (%)” value in the assay with wild type mice [3] (setting [6]) and with H3RKO mice [4] (setting [8]) were 58.3 ± 1.6 % and 52.7 ± 1.4%, respectively. In addition, the “insulin concentration in blood” value in the assay on wild type mice [3] (together with fat-decreasing effect) was “decreased”. For the same molecule, in the assay with H3RKO mice [4] (H3RKO mice, Imetit twice a day), the body weight-decreasing effect entry is on record as “such effect was not observed in H3RKO mice”. Further, the “VO2 (oxygen consumption)” value in the assay with C57BL/6J mice (FIG. 8, 11) is recorded as “increases”. Also, the VCO2 result with C57BL/6J mice (FIG. 9, 11) is given as “increases”. Moreover, in the assay with C57BL/6J mice (FIG. 10, 11), the “RQ (respiratory quotient)” value is given as “decrease”.

With `S=C(NC1CCCCC1)N1CCC(c2cnc[nH]2)CC1` [Thioperamide], the “body weight of fat mice” value in the assay with C57BL/6J DiO mice is recorded as “tendency that the body weight of fat mice was increased”.

For the origin of these results see US20100137391A1, “Histamine H3 Agonist for use as Therapeutic Agent for a Lipid/Glucose Metabolic Disorder” (priority 2005, published 2010).
